Reference: article PMC12090182, “Repurposing of the RIPK1-Selective Benzo[1,4]oxazepin-4-one Scaffold for the Development of a Type III LIMK1/2 Inhibitor” (ACS Chemical Biology, 2025)

What was measured:
Experiment in all cases: biochemical
Type in all cases: binding
[1] = target: 468 kinases including some pathogenic mutants (Homo sapiens, UniProt Q7KZI7); details: MARK2 (Entrez MARK2), 100 nM; read-out: Percent Control
[2] = target: 468 kinases including some pathogenic mutants (Homo sapiens, UniProt Q8TDC3); details: BRSK1 (Entrez BRSK1), 100 nM; read-out: Percent Control
Chain of 468 kinases including some pathogenic mutants (Homo sapiens, UniProt Q8TDC3) (Q8TDC3 whole entry, change not shown): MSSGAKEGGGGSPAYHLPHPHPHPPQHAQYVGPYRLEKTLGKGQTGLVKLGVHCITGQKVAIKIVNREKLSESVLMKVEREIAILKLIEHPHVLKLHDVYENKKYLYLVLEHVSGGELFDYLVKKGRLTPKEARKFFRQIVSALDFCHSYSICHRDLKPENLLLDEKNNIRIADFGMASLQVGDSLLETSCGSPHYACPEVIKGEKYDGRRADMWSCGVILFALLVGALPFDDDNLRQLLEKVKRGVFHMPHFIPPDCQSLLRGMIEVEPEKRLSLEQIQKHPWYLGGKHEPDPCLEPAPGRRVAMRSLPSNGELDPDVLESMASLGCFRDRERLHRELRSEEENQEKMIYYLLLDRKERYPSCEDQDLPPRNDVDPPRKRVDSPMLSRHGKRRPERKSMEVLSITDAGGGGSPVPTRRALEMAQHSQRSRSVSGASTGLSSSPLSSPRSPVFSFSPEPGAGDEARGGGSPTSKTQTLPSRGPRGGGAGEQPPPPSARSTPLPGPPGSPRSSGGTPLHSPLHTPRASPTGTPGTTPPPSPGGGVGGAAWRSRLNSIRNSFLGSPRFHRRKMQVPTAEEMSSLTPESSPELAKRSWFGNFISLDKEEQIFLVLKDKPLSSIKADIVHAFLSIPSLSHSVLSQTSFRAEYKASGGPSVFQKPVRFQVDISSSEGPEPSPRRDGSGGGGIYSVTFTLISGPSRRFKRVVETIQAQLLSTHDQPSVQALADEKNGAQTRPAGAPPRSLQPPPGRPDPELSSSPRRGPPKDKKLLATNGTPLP

[3] = target: 468 kinases including some pathogenic mutants (Homo sapiens, UniProt O95747); details: OSR1 (Entrez OXSR1), 100 nM; read-out: Percent Control
[4] = target: 468 kinases including some pathogenic mutants (Homo sapiens, UniProt Q13188); details: MST2 (Entrez STK3), 100 nM; read-out: Percent Control
[5] = target: 468 kinases including some pathogenic mutants (Homo sapiens, UniProt Q86Z02); details: HIPK1 (Entrez HIPK1), 100 nM; read-out: Percent Control
Chain of 468 kinases including some pathogenic mutants (Homo sapiens, UniProt Q86Z02) (Q86Z02 whole entry, change not shown): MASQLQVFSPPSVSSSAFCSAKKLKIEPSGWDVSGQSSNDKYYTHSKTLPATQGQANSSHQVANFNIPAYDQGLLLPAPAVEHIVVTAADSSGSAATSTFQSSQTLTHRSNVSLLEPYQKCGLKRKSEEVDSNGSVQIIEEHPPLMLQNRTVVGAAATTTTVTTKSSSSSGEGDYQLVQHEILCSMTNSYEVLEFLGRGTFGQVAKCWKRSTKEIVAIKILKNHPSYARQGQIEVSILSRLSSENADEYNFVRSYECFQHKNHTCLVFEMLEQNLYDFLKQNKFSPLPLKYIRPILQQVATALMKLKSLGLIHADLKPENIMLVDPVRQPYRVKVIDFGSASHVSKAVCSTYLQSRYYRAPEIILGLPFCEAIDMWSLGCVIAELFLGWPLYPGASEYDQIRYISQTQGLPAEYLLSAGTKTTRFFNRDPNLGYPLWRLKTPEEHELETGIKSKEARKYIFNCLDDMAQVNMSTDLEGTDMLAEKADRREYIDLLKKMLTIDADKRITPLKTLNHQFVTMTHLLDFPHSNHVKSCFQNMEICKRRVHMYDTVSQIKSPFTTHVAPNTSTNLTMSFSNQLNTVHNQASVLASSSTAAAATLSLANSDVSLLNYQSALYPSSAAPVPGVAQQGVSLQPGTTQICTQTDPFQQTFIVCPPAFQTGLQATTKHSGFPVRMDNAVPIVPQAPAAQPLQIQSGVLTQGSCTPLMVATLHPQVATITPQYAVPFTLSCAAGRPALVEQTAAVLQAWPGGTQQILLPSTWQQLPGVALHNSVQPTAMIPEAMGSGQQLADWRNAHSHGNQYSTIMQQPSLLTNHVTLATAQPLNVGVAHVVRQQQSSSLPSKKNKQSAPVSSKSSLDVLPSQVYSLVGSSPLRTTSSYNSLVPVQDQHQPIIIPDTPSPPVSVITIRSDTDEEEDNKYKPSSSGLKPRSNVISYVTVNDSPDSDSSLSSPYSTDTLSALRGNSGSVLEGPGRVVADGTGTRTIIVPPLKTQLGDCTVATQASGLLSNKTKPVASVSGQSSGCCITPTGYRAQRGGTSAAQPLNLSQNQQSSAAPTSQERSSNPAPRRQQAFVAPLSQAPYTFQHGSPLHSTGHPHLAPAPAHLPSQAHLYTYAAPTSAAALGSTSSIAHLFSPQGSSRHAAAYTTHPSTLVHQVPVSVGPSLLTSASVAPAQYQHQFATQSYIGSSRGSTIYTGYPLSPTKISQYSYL

[6] = target: 468 kinases including some pathogenic mutants (Homo sapiens, UniProt P23443); details: S6K1 (Entrez RPS6KB1), 1000 nM; read-out: Percent Control
[7] = target: 468 kinases including some pathogenic mutants (Homo sapiens, UniProt P17948); details: FLT1 (Entrez FLT1), 100 nM; read-out: Percent Control
[8] = target: 468 kinases including some pathogenic mutants (Homo sapiens, UniProt Q13557); details: CAMK2D (Entrez CAMK2D), 100 nM; read-out: Percent Control
[9] = target: 468 kinases including some pathogenic mutants (Homo sapiens, UniProt Q13555); details: CAMK2G (Entrez CAMK2G), 100 nM; read-out: Percent Control
[10] = target: 468 kinases including some pathogenic mutants (Homo sapiens, UniProt P21709); details: EPHA1 (Entrez EPHA1), 100 nM; read-out: Percent Control
Chain of 468 kinases including some pathogenic mutants (Homo sapiens, UniProt P21709) (P21709 26-976, change not shown): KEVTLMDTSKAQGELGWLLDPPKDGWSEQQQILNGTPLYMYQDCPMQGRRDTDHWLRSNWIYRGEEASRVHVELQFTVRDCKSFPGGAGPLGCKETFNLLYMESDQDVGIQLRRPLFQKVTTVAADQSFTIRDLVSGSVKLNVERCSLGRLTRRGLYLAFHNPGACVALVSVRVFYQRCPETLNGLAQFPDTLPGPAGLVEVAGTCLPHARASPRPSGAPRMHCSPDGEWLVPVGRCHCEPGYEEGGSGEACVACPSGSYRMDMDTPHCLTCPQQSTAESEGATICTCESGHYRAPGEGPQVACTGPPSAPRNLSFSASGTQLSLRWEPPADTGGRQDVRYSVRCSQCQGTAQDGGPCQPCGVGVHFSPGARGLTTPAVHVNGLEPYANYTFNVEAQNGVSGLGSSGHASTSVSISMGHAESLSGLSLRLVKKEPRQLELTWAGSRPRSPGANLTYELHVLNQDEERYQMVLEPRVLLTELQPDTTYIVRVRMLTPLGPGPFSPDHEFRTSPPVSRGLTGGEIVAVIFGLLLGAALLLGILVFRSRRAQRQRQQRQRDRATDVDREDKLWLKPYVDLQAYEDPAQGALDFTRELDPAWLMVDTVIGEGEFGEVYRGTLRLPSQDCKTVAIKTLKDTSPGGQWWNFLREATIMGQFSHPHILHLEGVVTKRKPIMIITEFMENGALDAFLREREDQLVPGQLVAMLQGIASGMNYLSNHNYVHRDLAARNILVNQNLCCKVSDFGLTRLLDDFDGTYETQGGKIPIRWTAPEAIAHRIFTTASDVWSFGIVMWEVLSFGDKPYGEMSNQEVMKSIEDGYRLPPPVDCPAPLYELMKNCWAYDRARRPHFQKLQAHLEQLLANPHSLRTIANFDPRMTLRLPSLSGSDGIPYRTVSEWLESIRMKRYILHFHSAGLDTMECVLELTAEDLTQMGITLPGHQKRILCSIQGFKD

[11] = target: 468 kinases including some pathogenic mutants (Homo sapiens, UniProt O96013); details: PAK4 (Entrez PAK4), 100 nM; read-out: Percent Control
[12] = target: 468 kinases including some pathogenic mutants (Homo sapiens, UniProt P45984); details: JNK2 (Entrez MAPK9), 100 nM; read-out: Percent Control
Chain of 468 kinases including some pathogenic mutants (Homo sapiens, UniProt P45984) (P45984 whole entry, change not shown): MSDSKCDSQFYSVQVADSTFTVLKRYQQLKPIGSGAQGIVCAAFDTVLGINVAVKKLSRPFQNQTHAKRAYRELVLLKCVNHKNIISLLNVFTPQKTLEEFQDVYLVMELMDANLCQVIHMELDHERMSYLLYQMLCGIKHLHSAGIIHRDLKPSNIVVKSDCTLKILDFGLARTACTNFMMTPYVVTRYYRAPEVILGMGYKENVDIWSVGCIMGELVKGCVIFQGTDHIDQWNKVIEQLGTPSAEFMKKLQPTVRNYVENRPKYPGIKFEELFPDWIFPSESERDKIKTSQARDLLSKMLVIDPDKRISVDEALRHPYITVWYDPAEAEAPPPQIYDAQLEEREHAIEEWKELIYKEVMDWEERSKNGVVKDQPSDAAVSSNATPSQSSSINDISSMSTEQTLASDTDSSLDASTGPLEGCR

[13] = target: 468 kinases including some pathogenic mutants (Homo sapiens, UniProt Q15208); details: NDR1 (Entrez STK38), 100 nM; read-out: Percent Control
[14] = target: 468 kinases including some pathogenic mutants (Homo sapiens, UniProt Q96BR1); details: SGK3 (Entrez SGK3), 100 nM; read-out: Percent Control
[15] = target: 468 kinases including some pathogenic mutants (Homo sapiens, UniProt O00750); details: PIK3C2B (Entrez PIK3C2B), 1000 nM; read-out: Percent Control
[16] = target: 468 kinases including some pathogenic mutants (Homo sapiens, UniProt O75914); details: PAK3 (Entrez PAK3), 100 nM; read-out: Percent Control
[17] = target: 468 kinases including some pathogenic mutants (Homo sapiens, UniProt P29376); details: LTK (Entrez LTK), 100 nM; read-out: Percent Control
[18] = target: 468 kinases including some pathogenic mutants (Homo sapiens, UniProt P36888, R834Q); details: read-out: Percent Control
[19] = target: 468 kinases including some pathogenic mutants (Homo sapiens, UniProt O00141); details: SGK (Entrez SGK1), 1000 nM; read-out: Percent Control
Chain of 468 kinases including some pathogenic mutants (Homo sapiens, UniProt O00141) (O00141 whole entry, change not shown): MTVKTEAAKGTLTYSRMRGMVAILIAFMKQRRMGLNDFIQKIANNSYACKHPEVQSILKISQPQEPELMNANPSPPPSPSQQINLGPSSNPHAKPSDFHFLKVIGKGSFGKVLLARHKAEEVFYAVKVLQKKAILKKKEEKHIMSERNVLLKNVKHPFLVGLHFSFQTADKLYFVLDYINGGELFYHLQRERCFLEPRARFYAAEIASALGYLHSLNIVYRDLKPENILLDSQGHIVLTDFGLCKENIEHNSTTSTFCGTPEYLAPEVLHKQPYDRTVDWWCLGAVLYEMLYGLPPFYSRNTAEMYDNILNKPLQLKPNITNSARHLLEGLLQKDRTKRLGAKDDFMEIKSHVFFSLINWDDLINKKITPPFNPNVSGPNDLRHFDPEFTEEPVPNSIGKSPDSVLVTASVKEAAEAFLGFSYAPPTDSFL

[20] = target: 468 kinases including some pathogenic mutants (Homo sapiens, UniProt O43318); details: TAK1 (Entrez MAP3K7), 100 nM; read-out: Percent Control
[21] = target: 468 kinases including some pathogenic mutants (Homo sapiens, UniProt P17612); details: PKAC-alpha (Entrez PRKACA), 1000 nM; read-out: Percent Control
[22] = target: 468 kinases including some pathogenic mutants (Homo sapiens, UniProt Q52WX2); details: SBK1 (Entrez SBK1), 1000 nM; read-out: Percent Control
[23] = target: 468 kinases including some pathogenic mutants (Homo sapiens, UniProt P49137); details: MAPKAPK2 (Entrez MAPKAPK2), 100 nM; read-out: Percent Control
[24] = target: 468 kinases including some pathogenic mutants (Homo sapiens, UniProt Q12866); details: MERTK (Entrez MERTK), 100 nM; read-out: Percent Control
Chain of 468 kinases including some pathogenic mutants (Homo sapiens, UniProt Q12866) (Q12866 21-999, stated change not applied): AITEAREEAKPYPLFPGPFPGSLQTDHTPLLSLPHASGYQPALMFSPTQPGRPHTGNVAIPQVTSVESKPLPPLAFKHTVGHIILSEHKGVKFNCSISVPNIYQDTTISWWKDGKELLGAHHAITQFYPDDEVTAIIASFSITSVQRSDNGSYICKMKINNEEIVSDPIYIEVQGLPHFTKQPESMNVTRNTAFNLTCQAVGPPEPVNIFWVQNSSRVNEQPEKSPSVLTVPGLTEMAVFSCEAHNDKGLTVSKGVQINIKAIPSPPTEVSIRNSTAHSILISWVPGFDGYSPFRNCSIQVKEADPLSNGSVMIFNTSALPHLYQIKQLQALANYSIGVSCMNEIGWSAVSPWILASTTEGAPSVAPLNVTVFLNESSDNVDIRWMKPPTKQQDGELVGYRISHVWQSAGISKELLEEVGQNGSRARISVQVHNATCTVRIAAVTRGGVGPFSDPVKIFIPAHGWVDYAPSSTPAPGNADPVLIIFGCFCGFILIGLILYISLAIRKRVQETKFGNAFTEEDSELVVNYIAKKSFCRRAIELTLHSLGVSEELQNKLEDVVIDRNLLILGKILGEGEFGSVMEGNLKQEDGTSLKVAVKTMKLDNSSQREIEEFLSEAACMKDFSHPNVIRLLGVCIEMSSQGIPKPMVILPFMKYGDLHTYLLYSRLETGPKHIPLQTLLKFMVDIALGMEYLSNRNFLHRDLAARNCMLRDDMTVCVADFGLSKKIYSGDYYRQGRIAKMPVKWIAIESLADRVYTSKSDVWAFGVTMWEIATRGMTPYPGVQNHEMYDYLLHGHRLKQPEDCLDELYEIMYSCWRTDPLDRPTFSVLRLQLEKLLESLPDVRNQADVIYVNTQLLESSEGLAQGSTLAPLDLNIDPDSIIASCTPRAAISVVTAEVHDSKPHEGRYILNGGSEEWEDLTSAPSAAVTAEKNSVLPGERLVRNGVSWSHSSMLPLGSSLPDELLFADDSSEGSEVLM

[25] = target: 468 kinases including some pathogenic mutants (Homo sapiens, UniProt P42336, H1047Y); details: read-out: Percent Control
[26] = target: 468 kinases including some pathogenic mutants (Homo sapiens, UniProt Q9UEW8); details: STK39 (Entrez STK39), 100 nM; read-out: Percent Control
[27] = target: 468 kinases including some pathogenic mutants (Homo sapiens, UniProt Q9H4A3); details: WNK1 (Entrez WNK1), 1000 nM; read-out: Percent Control
[28] = target: 468 kinases including some pathogenic mutants (Homo sapiens, UniProt Q96PN8); details: TSSK3 (Entrez TSSK3), 1000 nM; read-out: Percent Control
Chain of 468 kinases including some pathogenic mutants (Homo sapiens, UniProt Q96PN8) (Q96PN8 whole entry, change not shown): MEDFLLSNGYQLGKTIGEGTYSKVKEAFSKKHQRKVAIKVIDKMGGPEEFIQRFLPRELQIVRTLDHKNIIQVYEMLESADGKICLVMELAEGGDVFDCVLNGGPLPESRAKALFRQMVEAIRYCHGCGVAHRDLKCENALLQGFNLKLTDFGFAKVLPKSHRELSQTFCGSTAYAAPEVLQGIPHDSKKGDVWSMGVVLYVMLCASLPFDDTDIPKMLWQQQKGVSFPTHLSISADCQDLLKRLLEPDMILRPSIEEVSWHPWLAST

[29] = target: 468 kinases including some pathogenic mutants (Homo sapiens, UniProt Q13882); details: BRK (Entrez PTK6), 100 nM; read-out: Percent Control

For CN1C(=O)[C@@H](N2CCc3c(nn(Cc4ccccc4)c3C(N)=O)C2=O)COc2cc(Cl)ccc21 [Compound 10, (S)-2-benzyl-6-(8-chloro-5-methyl-4-oxo-2,3,4,5-tetrahydrobenzo[b][1,4]oxazepin-3-yl)-7-oxo-4,5,6,7-tetrahydro-2H-pyrazolo[3,4-c]pyridine-3-carboxamide], the remaining activity at 0.1 µM [1] was 78%, the remaining activity at 0.1 µM [2] was 91% and the remaining activity at 0.1 µM [3] was 100%. The remaining activity at 0.1 µM [4] was 64%, the remaining activity at 0.1 µM [5] was 73% and the remaining activity at 1 µM [6] was 100%. The remaining activity at 0.1 µM [7] was 78%, the remaining activity at 0.1 µM [8] was 80% and the remaining activity at 0.1 µM [9] was 78%. It also gave a remaining activity at 0.1 µM [10] of 91%, a remaining activity at 0.1 µM [11] of 100% and a remaining activity at 0.1 µM [12] of 80%. For the same compound, the remaining activity at 0.1 µM [13] was 86%, the remaining activity at 0.1 µM [14] was 90% and the remaining activity at 1 µM [15] was 100%. It also gave a remaining activity at 0.1 µM [16] of 53%, a remaining activity at 0.1 µM [17] of 54% and a remaining activity at 0.1 µM [18] of 81%. The remaining activity at 1 µM [19] was 100%, the remaining activity at 0.1 µM [20] was 100% and the remaining activity at 1 µM [21] was 100%. The remaining activity at 1 µM [22] was 100%, the remaining activity at 0.1 µM [23] was 53% and the remaining activity at 0.1 µM [24] was 72%. The remaining activity at 1 µM [25] was 100%, the remaining activity at 0.1 µM [26] was 67% and the remaining activity at 1 µM [27] was 100%. It also gave a remaining activity at 1 µM [28] of 100% and a remaining activity at 0.1 µM [29] of 81%.
